Measurements as given in patent publication US5391744A (priority 1993, dated 1995).
“Also recorded” adds a separate entry of the source. Like-named read-outs stand apart in the source and are kept apart here.

Tests used:
rats = assay: casual observation of animals treated with 2c; conditions: 0.8 mg/kg 2c; 24 hours following administration
dopamine transporter = dopamine transporter (Rattus norvegicus, UniProt P23977); assay: displacement of [^3 H]mazindol binding from rat striatal membranes
[1] = test system: rats trained to discriminate cocaine
[2] = target: T1, dopamine transporter (high-affinity uptake of [^3 H]dopamine into striatal nerve endings) (Rattus norvegicus, UniProt P23977); assay: inhibition of high-affinity uptake of [^3 H]dopamine into striatal nerve endings (synaptosomes); format: biochemical
T1 construct: striatal nerve endings (synaptosomes); from tissue; host or cells: striatal nerve endings (synaptosomes)
T1 sequence (P23977 whole entry): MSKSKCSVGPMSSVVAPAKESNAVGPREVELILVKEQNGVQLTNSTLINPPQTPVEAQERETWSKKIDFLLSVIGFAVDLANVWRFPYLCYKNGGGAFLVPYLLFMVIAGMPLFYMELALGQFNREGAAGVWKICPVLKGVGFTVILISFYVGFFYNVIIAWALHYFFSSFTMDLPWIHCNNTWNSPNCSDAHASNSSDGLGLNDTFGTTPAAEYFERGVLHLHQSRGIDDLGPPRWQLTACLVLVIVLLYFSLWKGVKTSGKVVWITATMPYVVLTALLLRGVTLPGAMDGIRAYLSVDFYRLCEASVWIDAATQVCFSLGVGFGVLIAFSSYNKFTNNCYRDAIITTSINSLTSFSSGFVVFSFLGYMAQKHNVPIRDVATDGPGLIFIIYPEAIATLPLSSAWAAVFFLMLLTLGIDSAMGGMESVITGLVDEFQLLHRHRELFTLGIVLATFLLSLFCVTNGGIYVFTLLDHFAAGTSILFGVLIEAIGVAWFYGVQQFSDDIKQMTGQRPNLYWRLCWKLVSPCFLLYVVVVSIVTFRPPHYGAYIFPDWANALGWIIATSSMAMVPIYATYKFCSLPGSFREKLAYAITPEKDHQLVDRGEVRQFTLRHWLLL

[3] = test system: rats trained to discriminate cocaine; assay: animal or person; conditions: Rattus norvegicus, ip, read-out: ED50 (50% cocaine-appropriate responding)
[4] = 0.05 mg/kg, 30 min, mean ± S.E.M.
[5] = 0.05 mg/kg, 120 min, mean ± S.E.M.
[6] = 0.05 mg/kg, 240 min, mean ± S.E.M.
[7] = 0.1 mg/kg, 30 min, mean ± S.E.M.
[8] = 0.1 mg/kg, 120 min, mean ± S.E.M.
[9] = 0.1 mg/kg, 240 min, mean ± S.E.M.
[10] = 0.2 mg/kg, 30 min, mean ± S.E.M.
[11] = 0.2 mg/kg, 240 min, mean ± S.E.M.
[12] = 0.4 mg/kg, 30 min, mean ± S.E.M.
[13] = 0.4 mg/kg, 120 min, mean ± S.E.M.
[14] = 0.4 mg/kg, 240 min, mean ± S.E.M.
[15] = 0.8 mg/kg, 30 min, mean ± S.E.M.

dopamine transporter, sequence (P23977 whole entry): as above

For `C=C[C@H]1[C@@H](c2ccc(Cl)cc2)C[C@@H]2CC[C@H]1N2C` [Compound 2c, 3β-(4-Chlorophenyl)-2β-vinyltropane], the hyperactivity (rats) was “still hyperactive 24 hours following administration”, the IC50 (dopamine transporter) was 1.2 ± 0.3 nM and the “potency compared with 1d” value (dopamine transporter; relative to ester counterpart 1d) was “slightly more potent than the "Win" type compound 1d; also recorded: slightly more potent than its ester counterpart 1d”. For the same compound, the “n/N (animals completing 20 responses / tested)” value ([1]; 0.05 mg/kg, 30 min) was 7/7, the “% Drug responses” value [1, 4] was 19 ± 4% and the “Rate (responses/min)” value [1, 4] was 29.6 ± 9 responses/min. For the same compound, the “n/N (animals completing 20 responses / tested)” value ([1]; 0.05 mg/kg, 120 min) was 7/7, the “% Drug responses” value [1, 5] was 22 ± 14% and the “Rate (responses/min)” value [1, 5] was 18.4 ± 6 responses/min. For the same compound, the “n/N (animals completing 20 responses / tested)” value ([1]; 0.05 mg/kg, 240 min) was 7/7, the “% Drug responses” value [1, 6] was 14 ± 14% and the “Rate (responses/min)” value [1, 6] was 28.3 ± 5 responses/min. The “n/N (animals completing 20 responses / tested)” value ([1]; 0.1 mg/kg, 30 min) was 7/7, the “% Drug responses” value [1, 7] was 40 ± 17% and the “Rate (responses/min)” value [1, 7] was 37.1 ± 6 responses/min. The “n/N (animals completing 20 responses / tested)” value ([1]; 0.1 mg/kg, 120 min) was 7/7, the “% Drug responses” value [1, 8] was 75 ± 16% and the “Rate (responses/min)” value [1, 8] was 25.7 ± 5 responses/min. The “n/N (animals completing 20 responses / tested)” value ([1]; 0.1 mg/kg, 240 min) was 7/7, the “% Drug responses” value [1, 9] was 61 ± 17% and the “Rate (responses/min)” value [1, 9] was 23.5 ± 4 responses/min. For the same compound, the “n/N (animals completing 20 responses / tested)” value ([1]; 0.2 mg/kg, 30 min) was 7/7, the “% Drug responses” value [1, 10] was 83 ± 10% and the “Rate (responses/min)” value [1, 10] was 26.2 ± 6 responses/min. The “n/N (animals completing 20 responses / tested)” value ([1]; 0.2 mg/kg, 120 min) was 7/7, the “% Drug responses” value ([1]; 0.2 mg/kg, 120 min, mean) was 100% and the “Rate (responses/min)” value ([1]; 0.2 mg/kg, 120 min, mean ± S.E.M.) was 46.8 ± 9 responses/min. For the same compound, the “n/N (animals completing 20 responses / tested)” value ([1]; 0.2 mg/kg, 240 min) was 7/7, the “% Drug responses” value [1, 11] was 98 ± 1% and the “Rate (responses/min)” value [1, 11] was 47.9 ± 10 responses/min. The “n/N (animals completing 20 responses / tested)” value ([1]; 0.4 mg/kg, 30 min) was 7/7, the “% Drug responses” value [1, 12] was 99 ± 1% and the “Rate (responses/min)” value [1, 12] was 52.8 ± 9 responses/min. For the same compound, the “n/N (animals completing 20 responses / tested)” value ([1]; 0.4 mg/kg, 120 min, * intense stereotypic response, failed to complete session) was 3/5, the “% Drug responses” value [1, 13] was 72 ± 28% and the “Rate (responses/min)” value [1, 13] was 24.9 ± 18 responses/min. For the same compound, the “n/N (animals completing 20 responses / tested)” value ([1]; 0.4 mg/kg, 240 min, * intense stereotypic response, failed to complete session) was 4/5, the “% Drug responses” value [1, 14] was 91 ± 9% and the “Rate (responses/min)” value [1, 14] was 23.6 ± 18 responses/min. For the same compound, the “n/N (animals completing 20 responses / tested)” value ([1]; 0.8 mg/kg, 30 min) was 7/7, the “% Drug responses” value [1, 15] was 93 ± 5% and the “Rate (responses/min)” value [1, 15] was 33.5 ± 9 responses/min. For the same compound, the “% Drug responses” value ([1]; 0.8 mg/kg, 120 min) was 95%, the “Rate (responses/min)” value ([1]; 0.8 mg/kg, 120 min) was 7.7 responses/min and the “n/N (animals completing 20 responses / tested)” value ([1]; 0.8 mg/kg, 120 min, * intense stereotypic response, failed to complete session) was 1/7. The “% Drug responses” value ([1]; 0.8 mg/kg, 240 min) was 100%, the “n/N (animals completing 20 responses / tested)” value ([1]; 0.8 mg/kg, 240 min, * intense stereotypic response, failed to complete session) was 3/7 and the “Rate (responses/min)” value ([1]; 0.8 mg/kg, 240 min, mean ± S.E.M.) was 39.1 ± 1 responses/min. The complete cocaine-like responding ([1]; 0.2 and 0.4 mg/kg, 30 min injection period) was “induced complete cocaine-line responding in all animals”, the response rates ([1]; in words, across test doses) was “stable across the different test doses of 2c, with the exception of the highest dose (0.8 mg/kg) of 2c which reduced response rates” and the “substitution for the cocaine cue / drug-appropriate responding” value ([1]; in words, dose-dependence over the tested doses) was “dose-dependent substitution for the cocaine cue”. The duration of action ([1]; in words, injection interval 30-240 min) was “long duration of action”, the IC50 [2] was 3.2 ± 0.6 nM and the ED50 ([3]; 0.5 h) was 0.11 mg/kg. The ED50 ([3]; 2 h) was 0.08 mg/kg and the ED50 ([3]; 4 h) was 0.09 mg/kg.
